Among the data in patent publication US8637518B2, “Pyridazinone derivatives” (MERCK PATENT GmbH, priority 2008, dated 2014) are IC50 and melting point values, retold here.

Molecules are shown by their SMILES. pIC50: −log10 of the molar value.

In one data set the target is T1, Met kinase (Homo sapiens, UniProt P08581).
T1 construct: 6His (N); purchased Upstate 14-526; host or cells: Sf21 insect cells (S. frugiperda), baculovirus
Put plainly: Met kinase inhibition, enzyme assay (flashplate method). Type of data set: biochemical. An excerpt:
According to the manufacturer's data (Met, active, upstate, catalogue No. 14-526), Met kinase is expressed for the purposes of protein production in insect cells (Sf21; S. frugiperda) and subsequent affinity-chromatographic purification as “N-terminal 6His-tagged” recombinant human protein in a baculovirus expression vector.
The test plates used are 96-well Flashplate® microtitre plates from Perkin Elmer (Cat. No. SMP200). The components of the kinase reaction described below are pipetted into the assay plate. The Met kinase and the substrate poly Ala-Glu-Lys-Tyr, (pAGLT, 6:2:5:1), are incubated for 3 hrs at room temperature with radioactively labelled ^33P-ATP in the presence and absence of test substances in a total volume of 100 μl. The reaction is terminated using 150 μl of a 60 mM EDTA solution. After incubation for a further 30 min at room temperature, the supernatants are filtered off with suction, and the wells are washed three times with 200 μl of 0.9% NaCl solution each time. The measurement of the bound radioactivity is carried out by means of a scintillation measuring instrument (Topcount NXT, Perkin-Elmer).
The full value used is the inhibitor-free kinase reaction. This should be approximately in the range 6000-9000 cpm. The pharmacological zero value used is staurosporin in a final concentration of […]. The inhibitory values ([…]) are determined using the RS1_MTS program.
Kinase reaction conditions per well:
• 30 μl of assay buffer • 10 μl of substance to be tested in assay buffer with 10% of DMSO • 10 μl of ATP (final concentration 1 μM cold, 0.35 μCi of ^33P-ATP) • 50 μl of Met kinase/substrate mixture in assay buffer; • (10 ng of enzyme/well, 50 ng of pAGLT/well)
Solutions used: • Assay buffer:
50 mM HEPES • 3 mM magnesium chloride • 3 μM sodium orthovanadate • 3 mM manganese(II) chloride • 1 mM dithiothreitol (DTT)
pH=7.5 (to be set using sodium hydroxide) • Stop solution:
60 mM Titriplex III (EDTA) • ^33P-ATP: Perkin-Elmer; • Met kinase: Upstate, Cat. No. 14-526, Stock 1 μg/10 μl; spec. activity 954 U/mg; • Poly-Ala-Glu-Lys-Tyr, 6:2:5:1: Sigma Cat. No. P1152 In-vivo tests

T1 sequence (P08581 974-1390 limits assumed): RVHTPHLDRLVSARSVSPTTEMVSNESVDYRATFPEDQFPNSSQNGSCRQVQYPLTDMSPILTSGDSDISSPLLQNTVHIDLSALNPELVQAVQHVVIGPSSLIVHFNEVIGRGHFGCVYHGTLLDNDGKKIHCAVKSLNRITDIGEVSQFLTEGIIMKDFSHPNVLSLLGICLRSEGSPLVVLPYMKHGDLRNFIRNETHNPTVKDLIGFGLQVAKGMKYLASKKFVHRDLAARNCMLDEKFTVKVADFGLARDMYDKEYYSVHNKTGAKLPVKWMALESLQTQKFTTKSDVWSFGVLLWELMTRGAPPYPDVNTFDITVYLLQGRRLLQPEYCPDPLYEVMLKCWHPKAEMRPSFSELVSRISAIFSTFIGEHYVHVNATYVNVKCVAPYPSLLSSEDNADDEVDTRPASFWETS

Regarding `CO[C@@H](C)[C@H](N)C(=O)NCCOc1cnc(-c2cccc(Cn3nc(-c4cnn(C)c4)ccc3=O)c2)nc1` [Compound A1, (2S,3S)-2-amino-3-methoxy-N-[2-(2-{3-[3-(1-methyl-1H-pyrazol-4-yl)-6-oxo-6H-pyridazin-1-ylmethyl]phenyl}pyrimidin-5-yloxy)ethyl]-butyramide], on Met kinase, the pIC50 was 6.00 to 8.00. Take `Cn1cc(-c2ccc(=O)n(Cc3cccc(-c4ncc(OCCNC(=O)[C@@H]5C[C@@H](O)CN5)cn4)c3)n2)cn1` [Compound A2, N-[2-(2-{3-[3-(1-Methyl-1H-pyrazol-4-yl)-6-oxo-6H-pyridazin-1-ylmethyl]-phenyl}pyrimidin-5-yloxy)ethyl]-(2S,4R)-4-hydroxypyrrolidine-2-carboxamide]: on Met kinase, the pIC50 was 6.00 to 8.00. Still for that read-out and setting: the value for `Cn1cc(-c2ccc(=O)n(Cc3cccc(-c4ncc(OCCNC(=O)[C@@H]5CCCN5)cn4)c3)n2)cn1` [Compound A3] was 6.00 to 8.00; that for `N#Cc1cccc(-c2ccc(=O)n(Cc3cccc(-c4ncc(OCCNC(=O)[C@@H]5C[C@@H](O)CN5)cn4)c3)n2)c1` [Compound A4, N-[2-(2-{3-[3-(3-Cyanophenyl)-6-oxo-6H-pyridazin-1-ylmethyl]phenyl}-pyrimidin-5-yloxy)ethyl]-(2S,4R)-4-hydroxypyrrolidine-2-carboxamide] was 6.00 to 8.00; that for `N#Cc1cccc(-c2ccc(=O)n(Cc3cccc(-c4ncc(OCCNC(=O)[C@@H]5CCCN5)cn4)c3)n2)c1` [Compound A5, N-[2-(2-{3-[3-(3-Cyanophenyl)-6-oxo-6H-pyridazin-1-ylmethyl]phenyl}-pyrimidin-5-yloxy)ethyl]-(S)-pyrrolidine-2-carboxamide] was 6.00 to 8.00. At Met kinase, `CO[C@@H](C)[C@H](N)C(=O)NCCOc1cnc(-c2cccc(Cn3nc(-c4cccc(C#N)c4)ccc3=O)c2)nc1` [Compound A6, (2S,3S)-2-Amino-N-[2-(2-{3-[3-(3-cyanophenyl)-6-oxo-6H-pyridazin-1-yl-methyl]phenyl}pyrimidin-5-yloxy)ethyl]-3-methoxybutyramide] showed a pIC50 of 6.00 to 8.00. With `CC(=O)N[C@H](C(=O)NCCOc1cnc(-c2cccc(Cn3nc(-c4cnn(C)c4)ccc3=O)c2)nc1)C(C)C` [Compound A7, (S)-2-acetylamino-3-methyl-N-[2-(2-{3-[3-(1-methyl-1H-pyrazol-4-yl)-6-oxo-6H-pyridazin-1-ylmethyl]phenyl}pyrimidin-5-yloxy)ethyl]-butyramide], at Met kinase, the pIC50 is 6.00 to 8.00.

Consider `CC(=O)N[C@H](C(=O)NCCOc1cnc(-c2cccc(Cn3nc(-c4cccc(C#N)c4)ccc3=O)c2)nc1)C(C)C` [Compound A8, (S)-2-acetylamino-N-[2-(2-{3-[3-(3-cyanophenyl)-6-oxo-6H-pyridazin-1-yl-methyl]phenyl}pyrimidin-5-yloxy)ethyl]-3-methylbutyramide], for which the pIC50 against Met kinase was 6.00 to 8.00.

As to `N#Cc1cccc(-c2ccc(=O)n(Cc3cccc(-c4ncc(O[C@@H]5CN[C@H](C(=O)O)C5)cn4)c3)n2)c1` [Compound A10, (2S,4S)-4-(2-{3-[3-(3-cyanophenyl)-6-oxo-6H-pyridazin-1-yl-methyl]phenyl}pyrimidin-5-yloxy)pyrrolidine-2-carboxylic acid], on Met kinase, the pIC50 is 6.00 to 8.00. Compound `Cn1cc(-c2ccc(=O)n(Cc3cccc(-c4ncc(OCCC[C@H](N)C(=O)O)cn4)c3)n2)cn1` [Compound A11, (S)-2-Amino-5-(2-{3-[3-(1-methyl-1H-pyrazol-4-yl)-6-oxo-6H-pyridazin-1-yl-methyl]phenyl}pyrimidin-5-yloxy)pentanoic acid] gave a pIC50 against Met kinase of 6.00 to 8.00. Regarding `CN(C)CC1CCC(COc2cnc(-c3cccc(Cn4nc(-c5cnn(C)c5)ccc4=O)c3)nc2)CC1` (stereo not shown) [Compound A13, 2-{3-[5-(4-dimethylaminomethylcyclohexylmethoxy)pyrimidin-2-yl]benzyl}-6-(1-methyl-1H-pyrazol-4-yl)-2H-pyridazin-3-one], the pIC50 on Met kinase is 6.00 to 8.00. On to `Cn1cc(-c2ccc(=O)n(Cc3cccc(-c4ncc(OCC5CCC(CN)CC5)cn4)c3)n2)cn1` (stereo not shown) [Compound A13a, 2-{3-[5-(4-aminomethylcyclohexylmethoxy)pyrimidin-2-yl]benzyl}-6-(1-methyl-1H-pyrazol-4-yl)-2H-pyridazin-3-one], for which the pIC50 at Met kinase is 6.00 to 8.00. As to `N#Cc1cccc(-c2ccc(=O)n(Cc3cccc(-c4ncc(OCC5CCC(CN)CC5)cn4)c3)n2)c1` (stereo not shown) [Compound A13b, 3-(1-{3-[5-(4-Aminomethylcyclohexylmethoxy)pyrimidin-2-yl]benzyl}-6-oxo-1,6-dihydropyridazin-3-yl)benzonitrile], the pIC50 at Met kinase was 6.00 to 8.00.

`N#Cc1cccc(-c2ccc(=O)n(Cc3cccc(-c4ncc(OCC5CC5CN)cn4)c3)n2)c1` (stereo not shown) [Compound A13c, 3-(1-{3-[5-(2-Aminomethylcyclopropylmethoxy)pyrimidin-2-yl]benzyl}-6-oxo-1,6-dihydropyridazin-3-yl)benzonitrile] showed a pIC50 on Met kinase of 6.00 to 8.00.

Turning to `Cn1cc(-c2ccc(=O)n(Cc3cccc(-c4ncc(OCC5(CN)CC5)cn4)c3)n2)cn1` [Compound A14, 2-{3-[5-(1-Aminomethylcyclopropylmethoxy)pyrimidin-2-yl]benzyl}-6-(1-methyl-1H-pyrazol-4-yl)-2H-pyridazin-3-one], the pIC50 against Met kinase was 6.00 to 8.00. `N#Cc1cccc(-c2ccc(=O)n(Cc3cccc(-c4ncc(OCC5(CN)CC5)cn4)c3)n2)c1` [Compound A15, 3-(1-{3-[5-(1-Aminomethylcyclopropylmethoxy)pyrimidin-2-yl]benzyl}-6-oxo-1,6-dihydropyridazin-3-yl)benzonitrile]: the negative-log IC50 (pIC50) against Met kinase is 6.00 to 8.00.

`CN(C)C[C@H]1C[C@@H]1COc1cnc(-c2cccc(Cn3nc(-c4cccc(C#N)c4)ccc3=O)c2)nc1` [Compound A17, 3-(1-{3-[5-((1S,2S)-2-Dimethylaminomethylcyclopropylmethoxy)pyrimidin-2-yl]benzyl}-6-oxo-1,6-dihydropyridazin-3-yl)benzonitrile] gave a pIC50 against Met kinase of 6.00 to 8.00. Take `N#Cc1cccc(-c2ccc(=O)n(Cc3cccc(-c4ncc(O[C@H]5CCC[C@H]5N)cn4)c3)n2)c1` [Compound A19, 3-(1-{3-[5-((1S,2R)-2-Aminocyclopentyloxy)pyrimidin-2-yl]benzyl}-6-oxo-1,6-dihydropyridazin-3-yl)benzonitrile]: the pIC50 against Met kinase was 6.00 to 8.00. Regarding `Cn1cc(-c2ccc(=O)n(Cc3cccc(-c4ncc(O[C@H]5CCC[C@H]5N)cn4)c3)n2)cn1` [Compound A20, 2-{3-[5-((1S,2R)-2-Aminocyclopentyloxy)pyrimidin-2-yl]benzyl}-6-(1-methyl-1H-pyrazol-4-yl)-2H-pyridazin-3-one], the negative logarithm of the IC50 (pIC50) against Met kinase was 6.00 to 8.00. `N#Cc1cccc(-c2ccc(=O)n(Cc3cccc(-c4ncc(OC5CCC(O)C5)cn4)c3)n2)c1` (stereo not shown) [Compound A23, 3-(1-{3-[5-(3-Hydroxycyclopentyloxy)pyrimidin-2-yl]benzyl}-6-oxo-1,6-dihydro-pyridazin-3-yl)benzonitrile] showed a pIC50 at Met kinase of 6.00 to 8.00. On to `N#Cc1cccc(-c2ccc(=O)n(Cc3cccc(-c4ncc(OCC5CCN(CC6CC6)CC5)cn4)c3)n2)c1` [Compound A24, 3-(1-{3-[5-(1-cyclopropylmethylpiperidin-4-ylmethoxy)-pyrimidin-2-yl]benzyl}-6-oxo-1,6-dihydropyridazin-3-yl)benzonitrile], for which, at Met kinase, the pIC50 is 6.00 to 8.00. In turn, `CNC(=O)COc1cnc(-c2cccc(Cn3nc(-c4cnn(C)c4)ccc3=O)c2)nc1` [Compound A27, N-Methyl-2-(2-{3-[3-(1-methyl-1H-pyrazol-4-yl)-6-oxo-6H-pyridazin-1-ylmethyl]phenyl}pyrimidin-5-yloxy)acetamide] had a melting point of 242 to 243 °C. For `CC(C)(C)OC(=O)NCCOc1cnc(-c2cccc(Cn3nc(-c4cccc(C#N)c4)ccc3=O)c2)nc1` [Compound B2, tert-butyl [2-(2-{3-[3-(3-cyanophenyl)-6-oxo-6H-pyridazin-1-ylmethyl]phenyl}-pyrimidin-5-yloxy)ethyl]carbamate], at Met kinase, the pIC50 is 6.00 to 8.00. In the case of `N#Cc1cccc(-c2ccc(=O)n(Cc3cccc(-c4ncc(OCCN5CCNCC5)cn4)c3)n2)c1` [Compound C5, 3-(6-oxo-1-{3-[5-(2-piperazin-1-ylethoxy)pyrimidin-2-yl]benzyl}-1,6-dihydro-pyridazin-3-yl)benzonitrile], the melting point was in the range of 149 to 150 °C. `CC(C)(C)OC(=O)N1CCC(COc2cnc(-c3cccc(Cn4nc(-c5cccc(C(N)=O)c5)ccc4=O)c3)nc2)CC1` [Compound C18, tert-butyl 4-(2-{3-[3-(3-carbamoylphenyl)-6-oxo-6H-pyridazin-1-ylmethyl]-phenyl}pyrimidin-5-yloxymethyl)piperidine-1-carboxylate] yielded a melting point of 197 to 198 °C.

The term pIC50 denotes −log10 of the IC50, conventionally taken in molar units. High values mean a small IC50, low ones a large IC50. The term melting point denotes the temperature of the solid-liquid transition.
